Laboratory results: patent US11466029B2, “Compounds useful to treat influenza virus infections” (Nanjing Zhengxiang Pharmaceuticals Co., Ltd., priority 2019, dated 2022)

Test system: Oseltamivir-resistant A/Weiss/43 (H1N1)
Assay: microbe, parasite or virus in culture
Type: cell-based
Settings: Influenza A virus, H1N1, MDCK, 120 h

SMILES	EC50
CCP(=O)(CC)c1cn2c(c(O)c1=O)C(=O)N1CCOC[C@H]1N2[C@@H]1c2ccccc2SCc2c1ccc(F)c2F [Compound F-1, (R)-9-(Diethylphosphoryl)-12-((S)-7,8-Difluoro-6,11-Dihydrodibenzo[b,e]-Thiepin-11-yl)-7-Hydroxy-3,4,12,12a-Tetrahydro-1H-[1,4]Oxazino[3,4-c]Pyrido[2,1-f][1,2,4]Triazine-6,8-Dione]	881 nM
CP(C)(=O)c1cn2c(c(O)c1=O)C(=O)N1CCOC[C@H]1N2[C@@H]1c2ccccc2SCc2c1ccc(F)c2F [Compound E-1c, (R)-12-((S)-7,8-difluoro-6,11-dihydrodibenzo[b,e]thiepin-11-yl)-9-(dimethylphosphoryl)-7-hydroxy-3,4,12,12a-tetrahydro-1H-[1,4]oxazino[3,4-c]pyrido[2,1-f][1,2,4]triazine-6,8-dione]	254 nM
CCC(CC)O[C@@H]1C=C(C(=O)O)C[C@H](N)[C@H]1NC(C)=O [Oseltamivir acid, reference compound]	> 100000 nM
O=C1c2c(O)c(=O)ccn2N([C@@H]2c3ccccc3SCc3c2ccc(F)c3F)[C@@H]2COCCN12 [Baloxavir acid, reference compound]	1 nM
O=C1c2c(O)c(=O)ccn2N([C@@H]2c3ccccc3[Se]Cc3c2ccc(F)c3F)[C@@H]2COCCN12 [Compound B-1, (R)-12-((S)-7,8-Difluoro-6,11-Dihydrodibenzo[b,e]Selenepin-11-yl)-7-Hydroxy-3,4,12,12a-Tetrahydro-1H-[1,4]Oxazino[3,4-c]Pyrido[2,1-f][1,2,4]Triazine-6,8-Dione]	1.1 nM
